Reference: patent US7795290B2 (Genentech, Inc., priority 2004, dated 2010)

Biological target: T1, AKT1 (Homo sapiens, UniProt P31749)
T1 construct: purchased Upstate 14-276
Test: HTS ATP-utilizing enzyme assay, off-chip mobility-shift (Caliper HTS 250)
Format: biochemical
Settings: kinase named = inhibitory activity/selectivity; test compound 10 μM; active = greater than three-sigma from mean
Outline: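 AKT1 activity was measured by off-chip mobility shift (Caliper HTS 250) as the ratio of peptide substrate to phosphorylated product. Test compound was at 10 μM, with 2.5 h incubation at 20–22° C. EDTA wells served as 100% control and DMSO wells as 0%. Hits were called at three-sigma limits.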

T1 sequence (P31749 whole entry): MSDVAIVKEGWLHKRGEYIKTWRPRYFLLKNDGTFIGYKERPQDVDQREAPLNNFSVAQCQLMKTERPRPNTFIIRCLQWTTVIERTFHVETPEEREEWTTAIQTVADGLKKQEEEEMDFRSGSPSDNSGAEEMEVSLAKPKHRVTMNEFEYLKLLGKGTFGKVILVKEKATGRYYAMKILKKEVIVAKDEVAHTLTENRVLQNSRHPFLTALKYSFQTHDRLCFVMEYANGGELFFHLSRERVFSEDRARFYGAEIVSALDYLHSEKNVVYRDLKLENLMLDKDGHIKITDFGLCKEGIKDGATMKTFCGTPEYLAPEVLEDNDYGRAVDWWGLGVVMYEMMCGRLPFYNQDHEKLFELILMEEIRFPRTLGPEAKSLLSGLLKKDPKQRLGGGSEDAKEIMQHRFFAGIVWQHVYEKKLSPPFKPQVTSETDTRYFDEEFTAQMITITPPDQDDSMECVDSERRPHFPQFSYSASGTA

Structure (SMILES) | Activity
CN(C)C1CCN(C(=O)CCN(C(=O)c2cccs2)c2nc(-c3cc4ccccc4o3)cs2)C1 (stereo not drawn) [N-(4-(benzofuran-2-yl)thiazol-2-yl)-N-(3-(3-(dimethylamino)pyrrolidin-1-yl)-3-oxopropyl)thiophene-2-carboxamide] | AKT1
CN(C)C1CCN(CCCN(C(=O)c2cccs2)c2nc(-c3cc4ccccc4o3)cs2)C1 (stereo not drawn) [N-(4-(benzofuran-2-yl)thiazol-2-yl)-N-(3-(3-(dimethylamino)pyrrolidin-1-yl)propyl)thiophene-2-carboxamide] | AKT1
O=C(CCN1CCCCC1)NCCCN(C(=O)c1cccs1)c1nc(-c2cc3ccccc3o2)cs1 [N-(4-(benzofuran-2-yl)thiazol-2-yl)-N-(3-(3-(piperidin-1-yl)propanamido)propyl)thiophene-2-carboxamide] | AKT1
CC(CO)(CO)C(=O)NCCCN(C(=O)c1cccs1)c1nc(-c2cc3ccccc3o2)cs1 [N-(4-(benzofuran-2-yl)thiazol-2-yl)-N-(3-(3-hydroxy-2-(hydroxymethyl)-2-methylpropanamido)propyl)thiophene-2-carboxamide] | AKT1
O=C(CCN(C(=O)c1cccs1)c1nc(-c2cc3ccccc3o2)cs1)N1CCCC(O)C1 (stereo not drawn) [N-(4-(benzofuran-2-yl)thiazol-2-yl)-N-(3-(3-hydroxypiperidin-1-yl)-3-oxopropyl)thiophene-2-carboxamide] | AKT1
O=C(c1cccs1)N(CCCN1CCC(O)C1)c1nc(-c2cc3ccccc3o2)cs1 (stereo not drawn) [N-(4-(benzofuran-2-yl)thiazol-2-yl)-N-(3-(3-hydroxypyrrolidin-1-yl)propyl)thiophene-2-carboxamide] | AKT1
CN(C)C(=O)CN1CCN(CCCN(C(=O)c2cccs2)c2nc(-c3cc4ccccc4o3)cs2)CC1 [N-(4-(benzofuran-2-yl)thiazol-2-yl)-N-(3-(4-(2-(dimethylamino)-2-oxoethyl)piperazin-1-yl)propyl)thiophene-2-carboxamide] | AKT1
COCCN1CCN(CCCN(C(=O)c2cccs2)c2nc(-c3cc4ccccc4o3)cs2)CC1 [N-(4-(benzofuran-2-yl)thiazol-2-yl)-N-(3-(4-(2-methoxyethyl)piperazin-1-yl)propyl)thiophene-2-carboxamide] | AKT1
CCN(CC)C1CCN(CCCN(C(=O)c2cccs2)c2nc(-c3cc4ccccc4o3)cs2)CC1 [N-(4-(benzofuran-2-yl)thiazol-2-yl)-N-(3-(4-(diethylamino)piperidin-1-yl)propyl)thiophene-2-carboxamide] | AKT1
O=C(c1cccs1)N(CCCN1CCC(CO)CC1)c1nc(-c2cc3ccccc3o2)cs1 [N-(4-(benzofuran-2-yl)thiazol-2-yl)-N-(3-(4-(hydroxymethyl)piperidin-1-yl)propyl)thiophene-2-carboxamide] | AKT1
O=C(N1CCOCC1)N1CCN(CCCN(C(=O)c2cccs2)c2nc(-c3cc4ccccc4o3)cs2)CC1 [N-(4-(benzofuran-2-yl)thiazol-2-yl)-N-(3-(4-(morpholine-4-carbonyl)piperazin-1-yl)propyl)thiophene-2-carboxamide] | AKT1
O=C(C1CCCO1)N1CCN(CCCN(C(=O)c2cccs2)c2nc(-c3cc4ccccc4o3)cs2)CC1 (stereo not drawn) [N-(4-(benzofuran-2-yl)thiazol-2-yl)-N-(3-(4-(tetrahydrofuran-2-carbonyl)piperazin-1-yl)propyl)thiophene-2-carboxamide] | AKT1
CN1CCN(CCCN(C(=O)c2cccs2)c2nc(-c3cc4ccccc4o3)cs2)CC1 [N-(4-(benzofuran-2-yl)thiazol-2-yl)-N-(3-(4-methylpiperazin-1-yl)propyl)thiophene-2-carboxamide] | AKT1
O=C(c1cccs1)N(CCCN1CCC(N2CCOCC2)CC1)c1nc(-c2cc3ccccc3o2)cs1 [N-(4-(benzofuran-2-yl)thiazol-2-yl)-N-(3-(4-morpholinopiperidin-1-yl)propyl)thiophene-2-carboxamide] | AKT1
CN(C)CCN(C)C(=O)CCN(C(=O)c1cccs1)c1nc(-c2cc3ccccc3o2)cs1 [N-(4-(benzofuran-2-yl)thiazol-2-yl)-N-(3-((2-(dimethylamino)ethyl)(methyl)amino)-3-oxopropyl)thiophene-2-carboxamide] | AKT1
CN(CCC#N)C(=O)CCN(C(=O)c1cccs1)c1nc(-c2cc3ccccc3o2)cs1 [N-(4-(benzofuran-2-yl)thiazol-2-yl)-N-(3-((2-cyanoethyl)(methyl)amino)-3-oxopropyl)thiophene-2-carboxamide] | AKT1
CN(CCO)C(=O)CCN(C(=O)c1cccs1)c1nc(-c2cc3ccccc3o2)cs1 [N-(4-(benzofuran-2-yl)thiazol-2-yl)-N-(3-((2-hydroxyethyl)(methyl)amino)-3-oxopropyl)thiophene-2-carboxamide] | AKT1
O=C(CCN(C(=O)c1cccs1)c1nc(-c2cc3ccccc3o2)cs1)N(CCO)CCO [N-(4-(benzofuran-2-yl)thiazol-2-yl)-N-(3-(bis(2-hydroxyethyl)amino)-3-oxopropyl)thiophene-2-carboxamide] | AKT1
O=C(c1cccs1)N(CCC(=O)N(CCCCO)C1CCCCC1)c1nc(-c2cc3ccccc3o2)cs1 [N-(4-(benzofuran-2-yl)thiazol-2-yl)-N-(3-(cyclohexyl(4-hydroxybutyl)amino)-3-oxopropyl)thiophene-2-carboxamide] | AKT1

Results, then the compound that gave them:

Activity | Structure (SMILES)
AKT1 | CCN(CC)C1CCN(CCCN(C(=O)c2cccs2)c2nc(-c3cc4ccccc4o3)cs2)C1 (stereo not drawn) [N-(4-(benzofuran-2-yl)thiazol-2-yl)-N-(3-(3-(diethylamino)pyrrolidin-1-yl)propyl)thiophene-2-carboxamide]
AKT1 | O=C(CCN(C(=O)c1cccs1)c1nc(-c2cc3ccccc3o2)cs1)N1CCCC(CO)C1 (stereo not drawn) [N-(4-(benzofuran-2-yl)thiazol-2-yl)-N-(3-(3-(hydroxymethyl)piperidin-1-yl)-3-oxopropyl)thiophene-2-carboxamide]
AKT1 | O=C(c1cccs1)N(CCCN1CCCC(CO)C1)c1nc(-c2cc3ccccc3o2)cs1 (stereo not drawn) [N-(4-(benzofuran-2-yl)thiazol-2-yl)-N-(3-(3-(hydroxymethyl)piperidin-1-yl)propyl)thiophene-2-carboxamide]
AKT1 | O=C(c1cccs1)N(CCCN1CCCC(O)C1)c1nc(-c2cc3ccccc3o2)cs1 (stereo not drawn) [N-(4-(benzofuran-2-yl)thiazol-2-yl)-N-(3-(3-hydroxypiperidin-1-yl)propyl)thiophene-2-carboxamide]
AKT1 | O=C(CCN(C(=O)c1cccs1)c1nc(-c2cc3ccccc3o2)cs1)N1CCC(O)C1 (stereo not drawn) [N-(4-(benzofuran-2-yl)thiazol-2-yl)-N-(3-(3-hydroxypyrrolidin-1-yl)-3-oxopropyl)thiophene-2-carboxamide]
AKT1 | O=C(CCN1CCOCC1)NCCCN(C(=O)c1cccs1)c1nc(-c2cc3ccccc3o2)cs1 [N-(4-(benzofuran-2-yl)thiazol-2-yl)-N-(3-(3-morpholinopropanamido)propyl)thiophene-2-carboxamide]
AKT1 | O=C1CN(CCCN(C(=O)c2cccs2)c2nc(-c3cc4ccccc4o3)cs2)CCN1 [N-(4-(benzofuran-2-yl)thiazol-2-yl)-N-(3-(3-oxopiperazin-1-yl)propyl)thiophene-2-carboxamide]
AKT1 | O=C(c1cccs1)N(CCCN1CCC(O)(O)CC1)c1nc(-c2cc3ccccc3o2)cs1 [N-(4-(benzofuran-2-yl)thiazol-2-yl)-N-(3-(4,4-dihydroxypiperidin-1-yl)propyl)thiophene-2-carboxamide]
AKT1 | O=C(c1cccs1)N(CCCN1CCN(CCOCCO)CC1)c1nc(-c2cc3ccccc3o2)cs1 [N-(4-(benzofuran-2-yl)thiazol-2-yl)-N-(3-(4-(2-(2-hydroxyethoxy)ethyl)piperazin-1-yl)propyl)thiophene-2-carboxamide]
AKT1 | CN(C)CCN1CCN(CCCN(C(=O)c2cccs2)c2nc(-c3cc4ccccc4o3)cs2)CC1 [N-(4-(benzofuran-2-yl)thiazol-2-yl)-N-(3-(4-(2-(dimethylamino)ethyl)piperazin-1-yl)propyl)thiophene-2-carboxamide]
AKT1 | N#CCCN1CCN(CCCN(C(=O)c2cccs2)c2nc(-c3cc4ccccc4o3)cs2)CC1 [N-(4-(benzofuran-2-yl)thiazol-2-yl)-N-(3-(4-(2-cyanoethyl)piperazin-1-yl)propyl)thiophene-2-carboxamide]
AKT1 | O=C(c1cccs1)N(CCCN1CCN(CCO)CC1)c1nc(-c2cc3ccccc3o2)cs1 [N-(4-(benzofuran-2-yl)thiazol-2-yl)-N-(3-(4-(2-hydroxyethyl)piperazin-1-yl)propyl)thiophene-2-carboxamide]
AKT1 | O=C(c1cccs1)N(CCCN1CCC(CCO)CC1)c1nc(-c2cc3ccccc3o2)cs1 [N-(4-(benzofuran-2-yl)thiazol-2-yl)-N-(3-(4-(2-hydroxyethyl)piperidin-1-yl)propyl)thiophene-2-carboxamide]
AKT1 | CN(C)CCCC(=O)NCCCN(C(=O)c1cccs1)c1nc(-c2cc3ccccc3o2)cs1 [N-(4-(benzofuran-2-yl)thiazol-2-yl)-N-(3-(4-(dimethylamino)butanamido)propyl)thiophene-2-carboxamide]
AKT1 | CS(=O)(=O)N1CCN(CCCN(C(=O)c2cccs2)c2nc(-c3cc4ccccc4o3)cs2)CC1 [N-(4-(benzofuran-2-yl)thiazol-2-yl)-N-(3-(4-(methylsulfonyl)piperazin-1-yl)propyl)thiophene-2-carboxamide]
AKT1 | O=C(c1cccs1)N(CCCN1CCC(O)CC1)c1nc(-c2cc3ccccc3o2)cs1 [N-(4-(benzofuran-2-yl)thiazol-2-yl)-N-(3-(4-hydroxypiperidin-1-yl)propyl)thiophene-2-carboxamide]
AKT1 | CN(CC(O)CO)C(=O)CCN(C(=O)c1cccs1)c1nc(-c2cc3ccccc3o2)cs1 (stereo not drawn) [N-(4-(benzofuran-2-yl)thiazol-2-yl)-N-(3-((2,3-dihydroxypropyl)(methyl)amino)-3-oxopropyl)thiophene-2-carboxamide]
